Measurements taken from patent US12059422B2 (MEI Pharma, Inc., priority 2011, dated 2024).

Assays:
PI3K gamma = molecular target: T1, PI3K gamma (Homo sapiens, UniProt P48736); experiment: Luciferase-based luminescence assay (ADP Glo), PI3K gamma enzymatic activity; format: biochemical; conditions: inhibition of enzymatic activity, 25 μM ATP, read-out: IC50 p110γ
T1 construct: purchased Invitrogen Corp., Carlsbad, CA, USA
In short: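 Final enzyme 4.8 nM PI3K beta or 7.6 nM PI3K gamma, with 50 μM PIP2 and 25 μM ATP, 1 h in HEPES pH 7.5 buffer with MgCl2, EGTA, NaCl, CHAPS and DTT. ADP formed measured by ADP-Glo luminescence; IC50 from 10-point curve fits.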

PI3K delta = molecular target: T2, PI3K delta (Homo sapiens, UniProt O00329); experiment: Luciferase-based luminescence assay (KinaseGlo), PI3K delta enzymatic activity; format: biochemical; conditions: for IC50: inhibition of enzymatic activity, KinaseGlo, 25 μM ATP, read-out: IC50 p110δ; for α/δ ratio: ratio of enzymatic IC50 against PI3Kα over IC50 against PI3Kδ; for β/δ ratio / γ/δ ratio: ratio of enzymatic IC50 values, Table 1
T2 construct: purchased Millipore, Billerica, MA, USA
In short: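 KinaseGlo luminescence measured ATP remaining after PIP2 (50 μM) phosphorylation with 25 μM ATP in HEPES pH 7.5 buffer with CHAPS and DTT. Final enzyme was 1.65 nM alpha (1 h reaction) or 6.86 nM delta (2 h reaction). IC50 was curve-fitted from 10 concentrations.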

T2 sequence (O00329 whole entry, species assumed): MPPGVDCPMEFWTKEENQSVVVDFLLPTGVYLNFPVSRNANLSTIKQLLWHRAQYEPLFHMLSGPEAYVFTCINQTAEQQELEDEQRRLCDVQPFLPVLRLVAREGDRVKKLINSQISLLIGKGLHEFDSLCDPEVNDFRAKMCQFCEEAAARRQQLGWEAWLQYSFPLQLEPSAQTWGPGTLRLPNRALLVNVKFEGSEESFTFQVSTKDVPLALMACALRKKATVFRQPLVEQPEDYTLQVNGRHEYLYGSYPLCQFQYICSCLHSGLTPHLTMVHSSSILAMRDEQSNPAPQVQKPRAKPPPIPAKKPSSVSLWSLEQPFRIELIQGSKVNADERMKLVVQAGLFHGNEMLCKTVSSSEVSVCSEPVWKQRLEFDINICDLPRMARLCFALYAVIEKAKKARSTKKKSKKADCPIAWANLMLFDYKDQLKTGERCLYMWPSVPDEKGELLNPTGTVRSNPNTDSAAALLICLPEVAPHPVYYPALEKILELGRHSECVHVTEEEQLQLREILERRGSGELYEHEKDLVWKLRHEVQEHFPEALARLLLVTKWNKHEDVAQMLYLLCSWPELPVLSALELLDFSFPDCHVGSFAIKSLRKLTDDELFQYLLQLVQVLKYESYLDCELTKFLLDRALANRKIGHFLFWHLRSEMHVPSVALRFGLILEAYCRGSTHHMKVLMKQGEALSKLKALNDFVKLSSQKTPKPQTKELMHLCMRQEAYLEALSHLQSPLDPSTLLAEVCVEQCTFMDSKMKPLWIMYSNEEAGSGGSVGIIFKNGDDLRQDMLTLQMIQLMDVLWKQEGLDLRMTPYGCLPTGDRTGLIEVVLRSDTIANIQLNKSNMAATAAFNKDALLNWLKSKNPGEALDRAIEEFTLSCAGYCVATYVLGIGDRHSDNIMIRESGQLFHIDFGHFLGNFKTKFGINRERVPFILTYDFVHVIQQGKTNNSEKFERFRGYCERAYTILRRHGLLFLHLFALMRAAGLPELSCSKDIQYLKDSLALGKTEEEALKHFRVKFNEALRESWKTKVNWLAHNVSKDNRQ
T2 sequence (P27986 whole entry partner, species assumed): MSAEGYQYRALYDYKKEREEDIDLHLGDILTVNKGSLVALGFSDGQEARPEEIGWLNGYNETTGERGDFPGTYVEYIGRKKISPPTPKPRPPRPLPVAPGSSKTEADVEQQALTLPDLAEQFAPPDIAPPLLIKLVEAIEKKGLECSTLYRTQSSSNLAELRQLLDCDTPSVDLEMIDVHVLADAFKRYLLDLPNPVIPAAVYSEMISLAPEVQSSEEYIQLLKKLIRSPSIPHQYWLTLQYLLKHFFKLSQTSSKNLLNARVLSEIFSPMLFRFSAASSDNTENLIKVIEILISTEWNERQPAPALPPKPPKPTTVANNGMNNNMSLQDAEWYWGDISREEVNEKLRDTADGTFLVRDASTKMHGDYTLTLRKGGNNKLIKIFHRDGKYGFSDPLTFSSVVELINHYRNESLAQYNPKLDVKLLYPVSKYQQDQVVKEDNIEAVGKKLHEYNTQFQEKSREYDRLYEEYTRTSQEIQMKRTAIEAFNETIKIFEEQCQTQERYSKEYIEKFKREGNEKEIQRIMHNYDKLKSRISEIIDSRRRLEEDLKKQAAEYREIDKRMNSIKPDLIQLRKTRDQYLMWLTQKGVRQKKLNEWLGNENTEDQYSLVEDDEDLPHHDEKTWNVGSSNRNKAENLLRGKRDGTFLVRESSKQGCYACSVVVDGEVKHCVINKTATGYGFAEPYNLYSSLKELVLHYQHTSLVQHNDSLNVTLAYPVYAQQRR
T1 sequence (P48736 whole entry, species assumed): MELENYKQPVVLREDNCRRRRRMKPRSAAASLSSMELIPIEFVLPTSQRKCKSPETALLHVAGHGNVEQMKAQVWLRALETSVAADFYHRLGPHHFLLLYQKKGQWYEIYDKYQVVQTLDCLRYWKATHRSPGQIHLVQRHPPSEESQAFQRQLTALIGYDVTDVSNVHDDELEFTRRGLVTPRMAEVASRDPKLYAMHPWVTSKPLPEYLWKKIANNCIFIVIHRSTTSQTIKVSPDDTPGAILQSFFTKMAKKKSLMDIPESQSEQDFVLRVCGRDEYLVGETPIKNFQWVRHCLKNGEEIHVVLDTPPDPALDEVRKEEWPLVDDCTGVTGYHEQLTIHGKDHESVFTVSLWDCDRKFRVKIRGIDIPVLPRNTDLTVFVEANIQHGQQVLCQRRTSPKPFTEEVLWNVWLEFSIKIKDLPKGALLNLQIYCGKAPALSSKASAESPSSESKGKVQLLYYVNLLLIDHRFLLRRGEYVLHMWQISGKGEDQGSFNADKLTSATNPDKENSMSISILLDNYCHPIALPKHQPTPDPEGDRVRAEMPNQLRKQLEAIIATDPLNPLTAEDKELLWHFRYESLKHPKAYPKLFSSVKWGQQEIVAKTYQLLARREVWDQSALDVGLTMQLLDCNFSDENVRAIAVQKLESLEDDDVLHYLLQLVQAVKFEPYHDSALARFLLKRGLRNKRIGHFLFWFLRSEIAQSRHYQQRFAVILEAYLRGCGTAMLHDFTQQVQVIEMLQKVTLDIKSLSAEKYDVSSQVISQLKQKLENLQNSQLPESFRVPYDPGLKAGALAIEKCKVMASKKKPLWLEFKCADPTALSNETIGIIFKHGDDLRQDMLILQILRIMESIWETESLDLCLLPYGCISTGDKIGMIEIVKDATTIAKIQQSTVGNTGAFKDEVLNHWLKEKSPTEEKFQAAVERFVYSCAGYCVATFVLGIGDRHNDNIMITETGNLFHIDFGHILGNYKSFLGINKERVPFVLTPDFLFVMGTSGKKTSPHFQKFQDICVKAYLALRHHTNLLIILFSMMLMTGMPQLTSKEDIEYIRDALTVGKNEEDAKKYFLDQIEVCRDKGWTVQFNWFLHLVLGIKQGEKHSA

IC50 (PI3K gamma)	IC50 (PI3K delta)	α/δ ratio (PI3K delta)	β/δ ratio (PI3K delta)	γ/δ ratio (PI3K delta)	SMILES
> 0.5 µM	≤ 0.1 µM	A’	A’	A’	CC(C)(Cc1ccccc1C1CCNC1)Nc1nc(N2CCOCC2)nc(-n2c(C(F)F)nc3ccccc32)n1 (stereo not drawn) [Compound A74, 4-(2-(difluoromethyl)-1H-benzo[d]imidazol-1-yl)-N-(2-methyl-1-(2-(pyrrolidin-3-yl)phenyl)propan-2-yl)-6-morpholino-1,3,5-triazin-2-amine]
> 0.5 µM	≤ 0.1 µM	A’	A’	A’	CC(C)(Cc1ccccc1-c1cccnc1F)Nc1nc(N2CCOCC2)nc(-n2c(C(F)F)nc3ccccc32)n1 [Compound A62]
> 0.5 µM	≤ 0.1 µM	A’	C’	A’	CC(C)(Cc1ccccc1F)Nc1nc(N2CCOCC2)nc(-n2c(C(F)F)nc3ccccc32)n1 [Compound A15, 4-(2-(difluoromethyl)-1H-benzo[d]imidazol-1-yl)-N-(1-(2-fluorophenyl)-2-methylpropan-2-yl)-6-morpholino-1,3,5-triazin-2-amine]
0.2 to 0.5 µM	≤ 0.1 µM	A’	D’	A’	CC(C)(Cc1ccccc1)Nc1nc(N2CCOCC2)nc(-n2c(C(F)F)nc3ccccc32)n1 [Compound A14, 4-(2-(difluoromethyl)-1H-benzo[d]imidazol-1-yl)-N-(2-methyl-1-phenylpropan-2-yl)-6-morpholino-1,3,5-triazin-2-amine]
0.2 to 0.5 µM	≤ 0.1 µM	B’	B’	B’	COc1ccccc1CC(C)(C)Nc1nc(N2CCOCC2)nc(-n2c(C(F)F)nc3ccccc32)n1 [Compound A19, 4-(2-(difluoromethyl)-1H-benzo[d]imidazol-1-yl)-N-(1-(2-methoxyphenyl)-2-methylpropan-2-yl)-6-morpholino-1,3,5-triazin-2-amine]
> 0.5 µM	≤ 0.1 µM	A’	A’	A’	CC(C)N1CCC(c2ccccc2CC(C)(C)Nc2nc(N3CCOCC3)nc(-n3c(C(F)F)nc4ccccc43)n2)CC1 [Compound A71, 4-(2-(difluoromethyl)-1H-benzo[d]imidazol-1-yl)-N-(1-(2-(1-isopropylpiperidin-4-yl)phenyl)-2-methylpropan-2-yl)-6-morpholino-1,3,5-triazin-2-amine]
